For test [1], the system named is WM cells. The settings on record: cited from earlier work.
Test [2] concerns WM cells. The settings on record: cited from earlier work. The source holds these as a separate data set.
Test [3] concerns C1013G/CXCR4-WM cell lines (BCWM1; MWCL1). Briefly: Cytotoxicity (MTT) of anti-WM agents, 48 h exposure. The test is classed as cell-based, human. The settings on record: vs control vector-infected cells. From the text: FIGS. 13A and 13B show GSEA enrichment plots of multiple drug resistance and response to drug signature genes in C1013G/CXCR4-mutated cells and control vector-infected cells (control cells), respectively. The plotted curves show the enrichment score and reflect the degree to which each gene (vertical lines) is represented at the top or bottom of the ranked gene list. The heat map indicates the relative abundance (left to right) of the genes specifically enriched in the mutated cells as compared with the control cells. Gene sets were considered enriched with a FDR always <0.25. Normalized enrichments score (NES) and FDR are shown per each gene set analyzed. FIGS. 13C-13G show the effects on C1013G/CXCR4-WM cell lines (BCWM1; MWCL1) or control vector-infected cells (control) exposed to everolimus, ibrutinib, idelalisib, bortezomib, and carfilzomib for 48 h.
Everolimus, idelalisib, ibrutinib, bortezomib, and carfilzomib were purchased from Selleck Chemicals (Houston, Tex.). Drugs were dissolved in dimethylsulfoxide and subsequently diluted in cell culture medium (10% fetal bovine serum) immediately before use.

Test [4] deals with BCWM.1-mCherry+ cells. Description: In vivo homing and tumor progression of wild-type WM cells. Set-up: species or system SCID/Bg mice. The settings on record: human IgM ELISA at end of study; P<0.05. As to the method:
Serum was collected at the end of the study. […] Cell toxicity was performed by MTT. […] Bars indicate standard deviation.
Human serum IgM levels were determined by using a human IgM ELISA assay (ZeptoMetrix, Buffalo, N.Y.), according to the manufacturer's protocol.
SCID/Bg mice (n=5/group) were injected with BCWM.1 infected with either precision LentiORF/CXCR4/GFP (CXCR4^+)- or empty vector probe/RFP (control)-infected BCWM.1 cells. After three weeks, mice were euthanized and organs harvested. Hematoxylin-eosin staining, immunohistochemistry for human-CD20 and -CXCR4 were performed on explanted organs. Independent experiments were conducted to evaluate differences in survival (SCID/Bg mice, n=7/group). Similar studies were conducted using […]/CXCR4-mutated cells and control vector-infected cells (control cells). In vivo homing studies were performed using BCWM.1-mCherry^+ cells: cells were injected intravenously into […] mice and treated with either BMS-936564 or control antibody (10 mg/kg, intraperitoneally; 3-4 times per week for 3 weeks). The ability of BMS-936564 to modulate WM homing to BM, spleen and lymph nodes was evaluated ex vivo at the third week on explanted tissues, by using a fluorescence microscope (Nikon Eclipse 80i, Melville, N.Y.) (Roccaro et al., 2013).
The anti-WM activity of BMS-936564 was also tested in vivo using wild-type WM cells. BCWM.1-mCherry^+ cells were injected intravenously into SCID/Bg mice and treated mice with either BMS-936564 or control antibody.
As CXCR4 inhibition is thought to induce stem cell and tumor cell mobilization, it was hypothesized that BMS-936564 may also induce mobilization of WM cells leading to increased chemosensitivity to anti-WM agents. Accordingly, the effect of BMS-936564 in modulating tumor progression and WM cell dissemination to distant BM niches in vivo was evaluated as monotherapy or in combination with bortezomib.
(In an ELISA, binding on a coated surface is turned into a signal by an enzyme label.)

SMILES strings stand for the structures.

On to `c1cc(CN2CCCNCCNCCCNCC2)ccc1CN1CCCNCCNCCCNCC1` [AMD3100, plerixafor], for which, in test [1], the “adhesion of WM cells to fibronectin, stromal cells, and endothelial cells” value is on record as “significantly inhibit”. For the same molecule, the “migration of WM cells” value in test [2] is recorded as “significantly inhibit”. Take `CO[C@H]1C[C@@H]2CC[C@@H](C)[C@@](O)(O2)C(=O)C(=O)N2CCCC[C@H]2C(=O)O[C@H]([C@H](C)C[C@@H]2CC[C@@H](OCCO)[C@H](OC)C2)CC(=O)[C@H](C)/C=C(\C)[C@@H](O)[C@@H](OC)C(=O)[C@H](C)C[C@H](C)/C=C/C=C/C=C/1C` [everolimus]: the “sensitivity of C1013G/CXCR4-mutated WM cells compared with unmutated control cells” value in test [3] was “resistance”. Consider `CC(C)C[C@H](NC(=O)[C@H](Cc1ccccc1)NC(=O)c1cnccn1)B(O)O` [bortezomib, reference compound], for which the “serum IgM levels” value in test [4] is given as “significantly reduced”. The “sensitivity of C1013G/CXCR4-mutated WM cells compared with unmutated control cells” value in test [3] is “equally sensitive”. As for `CC(C)C[C@H](NC(=O)[C@H](CCc1ccccc1)NC(=O)CN1CCOCC1)C(=O)N[C@@H](Cc1ccccc1)C(=O)N[C@@H](CC(C)C)C(=O)[C@@]1(C)CO1` [carfilzomib], the “sensitivity of C1013G/CXCR4-mutated WM cells compared with unmutated control cells” value in test [3] is recorded as “equally sensitive”. Same read-out and setting: for `CC[C@H](Nc1ncnc2[nH]cnc12)c1nc2cccc(F)c2c(=O)n1-c1ccccc1` [idelalisib] the value was “resistance”.

Source of the values: US11220548B2, “Treatment of C1013G/CXCR4-associated Waldenstrom's macroglobulinemia with an anti-CXCR4 antibody” (BRISTOL-MYERS SQUIBB COMPANY, priority 2013, dated 2022).
